# Measured values reported in ChEMBL document CHEMBL5338722, “Optical-Controlled Kinetic Switch: Fine-Tuning of the Residence Time of an Antagonist Binding to the Vasopressin V2 Receptor in In Vitro, Ex Vivo, and In Vivo Models of ADPKD” (J Med Chem, 2023).
# Calls of active or inactive are those of the source. The calls are words filed in the database; no cut-off is given here.
# Tests used:
# [1] = biological target: T1, Vasopressin V2 receptor (Homo sapiens, UniProt P30518); assay: Displacement of conivaptan-red fluorescent probe from SNAP-tagged human vasopressin V2 receptor expressed in HEK293 cells compound pre-illuminated for 10 mins with light at 435 nm and further incubated for 1 hr by HTRF assay; format: cell-based
# [2] = biological target: T1, Vasopressin V2 receptor; assay: Displacement of conivaptan-red fluorescent probe from SNAP-tagged human vasopressin V2 receptor expressed in HEK293 cells compound pre-illuminated for 10 mins with light at 365 nm and further incubated for 1 hr by HTRF assay; format: cell-based
# [3] = biological target: T1, Vasopressin V2 receptor; assay: (§1) Displacement of conivaptan-red fluorescent probe from SNAP-tagged human vasopressin V2 receptor expressed in HEK293 cells assessed as on-rate constant at 0.1 uM compound pre-illuminated for 10 mins with light at 365 nm by dual-point competition association assay; format: cell-based; details: filed as antagonist
# [4] = biological target: Vasopressin V1a receptor (Homo sapiens) (UniProt P37288); assay: Displacement of [3H]vasopressin from human V1A receptor expressed in CHO cell membranes at 1 uM compound pre-illuminated for 10 mins with light at 365 nm by radioligand displacement assay relative to control; details: Membrane
# [5] = tested on: Mus musculus; assay: In vivo inhibition of renal cystogenesis in Pkd1 knock-out autosomal dominant polycystic kidney disease mouse model assessed as reduction in cysts area at 5 mg/kg, sc administered once daily for 7 days compound pre-irradiated with light at 365 nm prior to administration by Hematoxylin-eosin staining based analysis; format: functional, organism-based; details: time 7.0 day
# [6] = biological target: T1, Vasopressin V2 receptor; assay: as §1, with “leftward shift in competition curve” for “on-rate constant”, “nm and measured for 10 to 60 mins” for “nm”; format: cell-based; details: filed as antagonist, time 10-60 min
# [7] = biological target: T1, Vasopressin V2 receptor; assay: Antagonist activity at human vasopressin V2 receptor expressed in CHO cells assessed as inhibition of AVP-induced cAMP production at 1 uM preincubated for 30 mins followed by two consecutive washouts and irradiated with light at 365 nm during two washouts; format: functional, cell-based; details: filed as antagonist
# [8] = tested on: Kidney; assay: Ex vivo inhibition of renal cystogenesis in ADPKD C57BL/6 mouse kidney assessed as suppression of 8-Br-cAMP-induced cyst development at 10 uM measured after 4 days in presence of 8-Br-cAMP by inverted microscopic analysis; format: functional, tissue-based; details: time 4.0 day
# [9] = biological target: T1, Vasopressin V2 receptor; assay: (§2) Antagonist activity at human vasopressin V2 receptor expressed in CHO cells assessed as inhibition of vasopressin-induced cAMP production at 10 times Ki preincubated for 30 mins followed by two consecutive washouts and irradiated with light at 435 nm in first 30 mins of washout and with light at 365 nm in second 30 mins of washout; format: functional, cell-based; details: filed as antagonist
# [10] = biological target: Serine/threonine-protein kinase mTOR (Homo sapiens) (UniProt P42345); assay: (§3) Inhibition of mTOR (unknown origin) assessed as inhibition of p70S6K phosphorylation at 10 times Ki preincubated for 30 mins followed by two consecutive washouts and irradiated with light at 435 nm in first 30 mins of washout and with light at 365 nm in second 30 mins of washout by Western blot analysis
# [11] = biological target: Serine/threonine-protein kinase mTOR (Homo sapiens) (UniProt P42345); assay: as §3, with “365” for “435”, “435” for “365”
# [12] = biological target: T1, Vasopressin V2 receptor; assay: as §1, with “kinetic rate index by measuring ratio of binding of labeled probe” for “on-rate constant”, “15 mins to 60 mins at IC50” for “0.1 uM”; format: cell-based; details: filed as antagonist
# [13] = tested on: Kidney; assay: Ex vivo target occupancy at vasopressin V2 receptor in Sprague-Dawley rat kidney assessed as endurance in retention time by measuring half life at 0.1 uM treated for 30 mins followed by extensive drug wash-out for 240 mins by LC-MS analysis; format: functional, tissue-based
# [14] = tested on: Mus musculus; assay: In vivo inhibition of renal cystogenesis in Pkd1 knock-out autosomal dominant polycystic kidney disease mouse model assessed as reduction in kidney size at 5 mg/kg, sc administered once daily for 7 days compound pre-irradiated with light at 365 nm prior to administration; format: functional, organism-based; details: time 7.0 day
# [15] = biological target: T1, Vasopressin V2 receptor; assay: as §2, with “vasopressin induced” for “vasopressin-induced”, “365” for “435”, “435” for “365”; format: functional, cell-based
# [16] = biological target: T1, Vasopressin V2 receptor; assay: Antagonist activity at human vasopressin V2 receptor expressed in CHO cells assessed as inhibition of vasopressin induced cAMP production at 10 times Ki preincubated for 30 mins followed by two consecutive washouts and irradiated with light at 365 nm during two washouts; format: functional, cell-based
# [17] = biological target: T1, Vasopressin V2 receptor; assay: Displacement of conivaptan-red fluorescent probe from SNAP-tagged human vasopressin V2 receptor expressed in HEK293 cells assessed as off-rate constant at 0.1 uM compound pre-illuminated for 10 mins with light at 365 nm by dual-point competition association assay; format: cell-based; details: filed as antagonist
# [18] = Drug uptake in Sprague-Dawley rat kidney at 0.1 uM treated for 30 mins followed by extensive drug wash-out for 4 hrs by LC-MS analysis; format: ADME, tissue-based; details: in vivo, 0.5 h
# [19] = biological target: T1, Vasopressin V2 receptor; assay: Antagonist activity at human vasopressin V2 receptor expressed in CHO cells assessed as inhibition of vasopressin induced cAMP production at 10 times Ki preincubated for 30 mins followed by two consecutive washouts and irradiated with light at 435 nm during two washouts; format: functional, cell-based
# [20] = biological target: Serine/threonine-protein kinase mTOR (Homo sapiens) (UniProt P42345); assay: Inhibition of mTOR (unknown origin) assessed as inhibition of p70S6K phosphorylation at 10 times Ki preincubated for 30 mins followed by two consecutive washouts and irradiated with light at 365 nm during two washouts by Western blot analysis
# [21] = biological target: T1, Vasopressin V2 receptor; assay: Displacement of conivaptan-red fluorescent probe from SNAP-tagged human vasopressin V2 receptor expressed in HEK293 cells assessed as residence time at 0.1 uM compound pre-illuminated for 10 mins with light at 365 nm by dual-point competition association assay; format: cell-based; details: filed as antagonist
# [22] = In vivo inhibition of renal cystogenesis in Pkd1 knock-out autosomal dominant polycystic kidney disease mouse model assessed as disease progression at 5 mg/kg, sc administered once daily for 7 days compound pre-irradiated with light at 365 nm prior to administration; format: functional; set-up: scale not given: the % may be the effect or the level left; details: time 7 day
# [23] = biological target: Serine/threonine-protein kinase mTOR (Homo sapiens) (UniProt P42345); assay: Inhibition of mTOR (unknown origin) assessed as inhibition of p70S6K phosphorylation at 10 times Ki preincubated for 30 mins followed by two consecutive washouts and irradiated with light at 435 nm during two washouts by Western blot analysis
# [24] = tested on: Mus musculus; assay: In vivo inhibition of renal cystogenesis in Pkd1 knock-out autosomal dominant polycystic kidney disease mouse model assessed as reduction in kidney size with fewer cysts at 5 mg/kg, sc administered once daily for 7 days compound pre-irradiated with light at 365 nm prior to administration by Hematoxylin-eosin staining based analysis; format: functional, organism-based; details: time 7.0 day
# [25] = biological target: T1, Vasopressin V2 receptor; assay: Antagonist activity at human vasopressin V2 receptor expressed in CHO cells assessed as inhibition of cAMP production; format: functional, cell-based; details: filed as antagonist
# [26] = biological target: T1, Vasopressin V2 receptor; assay: Displacement of conivaptan-red fluorescent probe from SNAP-tagged human vasopressin V2 receptor expressed in HEK293 cells assessed as on-rate constant at IC50 by TR-FRET based competition association assay; format: cell-based; details: filed as antagonist
# [27] = biological target: T1, Vasopressin V2 receptor; assay: Displacement of conivaptan-red fluorescent probe from SNAP-tagged human vasopressin V2 receptor expressed in HEK293 cells assessed as residence time at IC50 by TR-FRET based competition association assay; format: cell-based; details: filed as antagonist
# [28] = biological target: T1, Vasopressin V2 receptor; assay: Displacement of conivaptan-red fluorescent probe from SNAP-tagged human vasopressin V2 receptor expressed in HEK293 cells assessed as off-rate constant at IC50 by TR-FRET based competition association assay; format: cell-based; details: filed as antagonist
# [29] = biological target: T1, Vasopressin V2 receptor; assay: (§4) Displacement of conivaptan-red fluorescent probe from SNAP-tagged human vasopressin V2 receptor expressed in HEK293 cells assessed as residence time at 1 uM compound pre-illuminated for 10 mins with light at 435 nm by dual-point competition association assay; format: cell-based; details: filed as antagonist
# [30] = tested on: Mus musculus; assay: In vivo inhibition of renal cystogenesis in Pkd1 knock-out autosomal dominant polycystic kidney disease mouse model assessed as reduction in kidney size at 5 mg/kg, sc administered once daily for 7 days compound pre-irradiated with light at 435 nm prior to administration; format: functional, organism-based; details: time 7.0 day
# [31] = biological target: T1, Vasopressin V2 receptor; assay: Displacement of conivaptan-red fluorescent probe from SNAP-tagged human vasopressin V2 receptor expressed in HEK293 cells assessed as on-rate constant at 1 uM compound pre-illuminated for 10 mins with light at 435 nm by dual-point competition association assay; format: cell-based; details: filed as antagonist
# [32] = biological target: T1, Vasopressin V2 receptor; assay: as §4, with “kinetic rate index by measuring ratio of binding of labeled probe” for “residence time”, “15 mins to 60 mins at IC50” for “1 uM”; format: cell-based; details: filed as antagonist
# [33] = biological target: Vasopressin V1a receptor (Homo sapiens) (UniProt P37288); assay: Displacement of [3H]vasopressin from human V1A receptor expressed in CHO cell membranes at 1 uM compound pre-illuminated for 10 mins with light at 435 nm by radioligand displacement assay relative to control; details: Membrane
# [34] = In vivo inhibition of renal cystogenesis in Pkd1 knock-out autosomal dominant polycystic kidney disease mouse model assessed as disease progression at 5 mg/kg, sc administered once daily for 7 days compound pre-irradiated with light at 435 nm prior to administration; format: functional; set-up: scale not given: the % may be the effect or the level left; details: time 7 day
# [35] = biological target: T1, Vasopressin V2 receptor; assay: Displacement of conivaptan-red fluorescent probe from SNAP-tagged human vasopressin V2 receptor expressed in HEK293 cells assessed as off-rate constant at 1 uM compound pre-illuminated for 10 mins with light at 435 nm by dual-point competition association assay; format: cell-based; details: filed as antagonist
# T1 sequence (P30518 whole entry): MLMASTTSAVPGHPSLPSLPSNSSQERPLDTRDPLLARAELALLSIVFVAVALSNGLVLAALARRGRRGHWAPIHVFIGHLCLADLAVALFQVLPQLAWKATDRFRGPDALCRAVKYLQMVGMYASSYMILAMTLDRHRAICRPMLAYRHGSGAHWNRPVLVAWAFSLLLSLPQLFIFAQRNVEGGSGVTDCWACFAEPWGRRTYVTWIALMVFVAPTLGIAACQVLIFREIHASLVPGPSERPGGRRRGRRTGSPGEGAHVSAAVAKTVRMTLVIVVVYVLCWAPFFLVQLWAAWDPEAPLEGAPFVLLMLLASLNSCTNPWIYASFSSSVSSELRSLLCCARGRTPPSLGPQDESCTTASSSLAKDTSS
# Chain of Vasopressin V1a receptor (Homo sapiens) (P37288 whole entry, looked up): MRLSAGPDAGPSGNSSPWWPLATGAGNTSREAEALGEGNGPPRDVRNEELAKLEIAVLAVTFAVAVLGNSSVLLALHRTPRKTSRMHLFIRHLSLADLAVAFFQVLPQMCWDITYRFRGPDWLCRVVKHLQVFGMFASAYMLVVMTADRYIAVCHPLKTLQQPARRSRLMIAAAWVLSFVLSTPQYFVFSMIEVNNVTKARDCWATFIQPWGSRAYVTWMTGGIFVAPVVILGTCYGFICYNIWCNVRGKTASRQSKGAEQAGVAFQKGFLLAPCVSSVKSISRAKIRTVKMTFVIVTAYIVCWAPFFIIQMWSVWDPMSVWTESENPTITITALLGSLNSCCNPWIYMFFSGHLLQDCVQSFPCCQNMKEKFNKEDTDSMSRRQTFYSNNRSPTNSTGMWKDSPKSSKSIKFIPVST
structure (smiles),measurement,setting,value
O=C(c1ccc(/N=N/c2cccc(-c3ccccc3)c2)cc1Cl)N1Cc2cccn2Cc2ccccc21,Ki,[1],2180 nM
Cc1cccc(/N=N\c2ccc(C(=O)N3Cc4cccn4Cc4ccccc43)c(Cl)c2)c1,Ki,[2],134 nM
Cc1cccc(/N=N/c2ccc(C(=O)N3Cc4cccn4Cc4ccccc43)c(Cl)c2)c1,Ki,[1],355 nM
O=C(c1ccc(/N=N/c2ccc(F)cc2)cc1Cl)N1Cc2cccn2Cc2ccccc21,Ki,[1],851 nM
Cc1ccc(/N=N\c2ccc(C(=O)N3Cc4cccn4Cc4ccccc43)c(Cl)c2)cc1,K,[3],6.6 10^5/M/min
same,inhibition,[4],< 40%
same,inhibition,[5],Active
same,Activity,[6],Active
same,inhibition,[7],Active
same,inhibition,[8],Active
same,inhibition,[9],Active
same,inhibition,[10],inactive
same,inhibition,[11],inactive
same,Ratio,[12],1.72
same,T1/2,[13],1.82 h
same,inhibition,[14],Active
same,inhibition,[15],inactive
same,Ki,[2],40 nM
same,inhibition,[16]; filed as antagonist,Active
same,K,[17],0.017 min⁻¹
same,Drug uptake,[18],26 nM
same,inhibition,[19],inactive
same,inhibition,[20],Active
same,TIME,[21],1.07 h
same,Activity,[22],14.6%
same,inhibition,[23],inactive
same,inhibition,[24],Active
same,inhibition,[25],Active
Cc1ccc(F)cc1C(=O)Nc1ccc(C(=O)N2Cc3cccn3Cc3ccccc32)c(Cl)c1,K,[26],4.6 10^7/M/min
same,TIME,[27],0.3 h
same,K,[28],0.06 min⁻¹
same,inhibition,[16],inactive
same,inhibition,[19],inactive
Cc1ccc(F)cc1/N=N/c1ccc(C(=O)N2Cc3cccn3Cc3ccccc32)c(Cl)c1,Ki,[1],577 nM
Cc1ccccc1/N=N/c1ccc(C(=O)N2Cc3cccn3Cc3ccccc32)c(Cl)c1,Ki,[1],432 nM
O=C(c1ccc(/N=N/c2ccc(C(F)(F)F)cc2)cc1Cl)N1Cc2cccn2Cc2ccccc21,Ki,[1],589 nM
Cc1ccc(/N=N/c2ccc(C(=O)N3Cc4cccn4Cc4ccccc43)c(Cl)c2)cc1,TIME,[29],0.25 h
same,inhibition,[7],Active
same,inhibition,[8],Active
same,inhibition,[30],Active
same,K,[31],1.1 10^5/M/min
same,Ratio,[32],0.95
same,T1/2,[13],0.483 h
same,inhibition,[33],< 40%
same,Activity,[34],18.2%
same,inhibition,[16]; filed as antagonist,Active
same,Drug uptake,[18],10 nM
same,K,[35],0.068 min⁻¹
same,Ki,[1],281 nM
Cc1ccccc1/N=N\c1ccc(C(=O)N2Cc3cccn3Cc3ccccc32)c(Cl)c1,Ki,[2],1240 nM
